These are literature values, as cited in US8653051B2, “Use of 3-alpha-androstanediol in combination with a PDE5 inhibitor, in the treatment of sexual dysfunction” (Emotional Brain B.V., priority 2006, dated 2014).

The conditions of the data set: typical value after administration.

With `CCCc1nc(C)c2c(=O)nc(-c3cc(S(=O)(=O)N4CCN(CC)CC4)ccc3OCC)[nH]n12.Cl` [vardenafil, piperazine, 1-[[3-(1,4-dihydro-5-methyl-4-oxo-7-propylimidazo[5,1-f][1,2,4]triazin-2-yl)-4-ethoxyphenyl]sulfonyl]-4-ethyl-, monohydrochloride], the “time to reach peak plasma concentration after administration” value is reported as “about 1 hour”.
